According to patent publication US20190201538A1, “TUMOR-TARGETING PHOTOSENSITIZER-DRUG CONJUGATE, METHOD FOR PREPARING SAME AND PHARMACEUTICAL COMPOSITION FOR PREVENTING OR TREATING TUMOR CONTAINING SAME” (KOREA INSTITUTE OF SCIENCE AND TECHNOLOGY, priority 2018, published 2019):
Numbered stars: 1 amine (or outer) side, 2 acyl side, 3 side chain; on linkers, the order of the positions; unused ones are H or OH. Square brackets hold non-standard residues; d marks the D form. Peptide text beside a SMILES is read from it. * marks the point of attachment. ξ: configuration not given here. X1 = C=Cc1c(C)c2cc3nc(c(CC(=O)O)c4nc(cc5[nH]c(cc1[nH]2)c(C)c5CC)C(C)=C4C(=O)O)C(CCC(=O)*)C3C; Dolaproine = CO[C@@H]([C@@H]1CCCN1)[C@@H](C)C(=O)O; ξDil = CC[C@H](C)C([C@@H](CC(=O)[*:2])OC)N(C)[*:1]; Dil = CC[C@H](C)[C@H](NC)[C@@H](CC(=O)O)OC; PABC = O=C(OCc1ccc(N[*:1])cc1)[*:2]; X2 = C[C@@H](N*)[C@@H](O)c1ccccc1; NMeV = CN[C@H](C(=O)O)C(C)C

Experiments:
SCC7 cells [1] = conditions: 50 μg/mL
Procedure: Experiments were conducted using SCC7 cells as follows. Specifically, the cells were cultured in a medium containing 10% fetal bovine serum (FBS) and 1% antibiotic using a 5% CO2 incubator at 37 C. […] After the incubation was completed, the cells were washed and fixed with a 2% paraformaldehyde solution. Then, the cells were stained with 4,6-diamidino-2-phenylindole (DAPI, Invitrogen, USA).

SCC7 cells [2] = assay: Cytotoxicity upon exposure to light (CCK-8)
Procedure: Specifically, 1×10^4 cells were seeded onto each well of a 96-well plate and cultured for 24 hours. Then, the cells were incubated with a drug at 500 nM for 6 hours after washing twice with PBS. After removing the culture medium, the cells were irradiated with light at 2.4 J/cm^2. The cells were then incubated for 30 minutes in a medium containing a 10% CCK-8 solution and absorbance was measured at 450 nm using a microplate reader.
(§1) The black circles indicate the sites irradiated with the laser.

SCC7 tumor [3] = assay: Biodistribution in vivo by NIR fluorescence imaging in tumor animal model; parameters: species or system mouse
Procedure: Near-infrared (NIR) fluorescence imaging was conducted using a real-time optical imaging system in order to evaluate biodistribution in vivo. […]
For the in-vivo experiment, a tumor animal model was prepared by injecting 1×10^6 SCC7 cells into the left flank of a nude mouse.

SCC7 tumor [4] = tested on: SCC7 tumor
Procedure: In order to conduct an in-vivo animal experiment, 5-week-oil BALB/c nude mouse mice were used as an allograft tumor animal model (BALB/c). The tumor animal model (BALB/c) was prepared by preparing a cell suspension containing 1×10^6 SCC7 cells and 80 μL of a medium and injecting it into the thighbone at the flank of the BALB/c nude mouse where the effect of respiratory movement is little. Then, the mice were bred for about 8 days until the tumor grew to a size of about 80 mm^3.
The tumor animal model prepared by administering various drugs as described in 9) was subjected to photodynamic therapy and the expression level of caspase-3 in vivo was monitored. For this, NIR fluorescence images were obtained using a probe which is activated by specifically reacting with caspase-3 (Cas3p; Cy5-GDEVD-BHQ3).
After 3 hours, Cas3p was injected and its biodistribution was measured using an excitation filter (640 nm) and an emission filter (710 nm).
First, in order to clarify the stimulation-specific therapeutic effect for a tumor animal model, the same tumor tissue was transplanted into different parts (left and right sides) of the same animal model and the two tumor tissues were compared.
A tumor animal model (Balb/c nu/nu) was prepared as described above in Materials and methods 9).

[5] = physiological saline
caspase-3 [6] = target: caspase-3 (Homo sapiens, UniProt P42574)
Sequence of caspase-3 (Homo sapiens, UniProt P42574) (P42574 29-175 limits assumed, species assumed): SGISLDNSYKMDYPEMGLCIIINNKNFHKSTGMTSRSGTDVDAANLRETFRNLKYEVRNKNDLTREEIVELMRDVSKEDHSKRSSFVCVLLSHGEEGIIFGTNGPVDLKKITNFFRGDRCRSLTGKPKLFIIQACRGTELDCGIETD
Sequence of caspase-3 (Homo sapiens, UniProt P42574) (P42574 176-277 limits assumed, species assumed): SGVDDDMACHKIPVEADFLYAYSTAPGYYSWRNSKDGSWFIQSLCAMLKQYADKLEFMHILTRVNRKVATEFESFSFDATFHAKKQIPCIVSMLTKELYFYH
Procedure: Finally, the mixture solution was analyzed by RP-HPLC (Agilent 1200 series, Agilent Technology, USA) equipped with a UV detector.

[7] = Toxicity in vivo in tumor animal model (C3H); parameters: species or system mouse; number of neutrophils: unit not given here; conditions: for change in number of total white blood cells (WBCs): 0.5 mg/kg (CDM based on MMAE concentration); for change in body weight: 50, 200, 500 μg/kg (CDM based on MMAE concentration); for survival rate: CDM 0.25 mg/kg based on MMAE, Ce6 1 mg/kg group
Procedure: The body weight change of the tumor animal model was measured every day after treatment with the drug. […] All the blood samples were stored at 4° C. and analyzed within a day in SCL (Seoul Clinical Laboratories, Korea).
First, a tumor animal model was prepared by transplanting SCC7 tumor cells into a C3H mouse. Details are described above in Materials and methods.
6 groups were prepared as follows by injecting drugs into the tail vein of the tumor animal model. […] The total treatment period was 14 days.

caspase-3 [8] = conditions: 500 nM, CDM + laser
Procedure: Caspase-3 colorimetric assay and western blot were conducted to quantify enzyme expression. First, SCC7 cells were cultured on a 100 mm^2 cell culture dish until 70% confluence and further cultured for 6 hours after adding a drug (500 nM). After replacing the medium, light was irradiated with 20 mW/cm^2 for 5 minutes. After culturing further for 3 hours, the cells were recovered for analysis of caspase-3. For immunoblotting assay, the cells were treated with anti-cleaved caspase-3 antibody (1:650) and anti-PARP antibody (1:1000) purchased from Cell Signaling Technology (Danvers, Mass.) as primary antibodies and then treated with HRP-conjugated anti-rabbit IgG and anti-mouse IgG (1:1000; R&D Systems) as secondary antibodies. The blotted membrane was analyzed with a chemiluminescence imager (LAS-3000; Fuji Photo Film, Japan). Colorimetric assay of caspase-3 was conducted using a microplate reader (VERSAmaxTM, Molecular Devices Corp., USA) and a caspase-3 assay kit (Abcam, Cambridge, MA) according to the manufacturer's instructions.

SCC7 cells [9] = assay: Trypan blue staining after laser irradiation of a marked area; format: cell-based; conditions: 500 nM, 20 mW/cm^2 for 5 minutes
Procedure: […], SCC7 cells were cultured until 80% confluence on a 60 mm cell culture dish. […] After the incubation was completed, the culture medium was replaced. A laser was irradiated at 20 mW/cm^2 for 5 minutes only onto an area marked with a small circle on the culture dish. Then, the cells were treated with trypan blue for 1 minute.
as §1

[10] = Solubility in water, PBS and physiological saline; format: physicochemical; conditions: for solubility in water: dissolved in water alone
[11] = pyrene method
Description: Next, emission spectra were obtained at 372 nm and 383 nm using a spectrophotometer (F-7000, Hitachi High-Technologies Corporation, Japan) with an excitation wavelength of 340 nm. […] Fluorescence images were obtained at excitation (660 nm) and emission (710 nm) wavelengths.

SCC7 cells [12] = assay: Cytotoxicity in vitro (CCK-8), with or without caspase-3; format: cell-based; conditions: for effect on tumor cells at 10 nM without caspase-3: not activated by caspase-3 / alone
Procedure: The cytotoxicity of a drug was evaluated by a colorimetric assay using the cell counting kit-8 (CCK-8; Dojindo Molecular Technologies, Inc., USA). […] After removing the culture medium, the plate was washed twice with PBS.

SCC7 cells [13] = conditions: SCC7 cells incubated with CDM, laser irradiation
Procedure: The apoptosis of the fixed cells was measured using an annexin V-FITC apoptosis detection kit (Sigma-Aldrich Co., USA). […] Then, the light-irradiated cells were treated with trypsin and stained for 30 minutes with FITC-annexin V and propidium iodide (PI) according to the manufacturer's instructions. The fluorescence images of the stained cells were obtained using a confocal laser scanning microscope (Leica TCS SP8; Leica Microsystems, Germany).

[14] = self-assembled nanoparticle, DPBS 0.1 mg/mL
Procedure: Molecular structure was investigated with ChemBioDraw Ultra 12.0 (Cambridge Soft Corporation), PyMOL 1.7.0.1 (DeLano Scientific) or Discovery Studio 4.0. […] Hydrodynamic size and distribution were measured by dynamic light scattering (SZ-100, Horiba, Ltd., Japan) using a 532 nm DPSS laser.

[15] = self-assembled nanoparticle, physiological saline
Procedure: Morphology was observed by transmission electron microscopy (Talos F200X, FEI Company, USA). All the samples were treated with a 1% uranyl acetate solution to obtain negatively stained microscopic images.

SCC7 tumor [16] = assay: Antitumor effect in tumor animal model (C3H); conditions: for tumor growth with laser: drug + 671 nm laser 25 mW/cm^2, Ce6 1 mg/kg, CDM 0.25 mg/kg based on MMAE; for damage to other organs (biopsy) / tumor cell killing in H&E biopsy: drug + laser
Procedure: For evaluation of therapeutic effect in vivo, tumor volume was measured for a tumor animal model for 14 days. When the tumor tissue grew to a size of about 80 mm^3, the tumor animal model was evaluated by dividing into 6 groups as follows.
Then, the tumor size was measured every other day.
For histological analysis, tumor tissues and organ tissues were taken from the in-vivo animal model after conducting antitumor growth analysis. The extracted tissues were washed with PBS and fixed with a 4% paraformaldehyde solution. Then, the tissues were stained with H&E (hematoxylin and eosin) and the stained tissues were embedded in paraffin and placed on glass slides after cutting into 4 μm thick slices. After removing paraffin, the tissues were stained with H&E and observed under an optical microscope (BX 51; Olympus, USA). […] The tissues were cut into 10 μm thick slices, freeze-dried and then observed under a confocal laser scanning microscope.
A He—Ne laser (671 nm) was used and the laser was irradiated at 25 mW/cm^2 three times for 10 minutes after the injection of the drug (n=6).

[17] = 1 mg/kg, tail vein
Procedure: For comparative analysis of pharmacokinetic characteristics in vivo, a tumor animal model was prepared in the same manner as in 9) using C57/BL6 mice instead of BALB/c nude mice.
After the injection, 20 μL of blood was taken from the tail vein of the tumor animal model (C57/BL6) over 12 hours at predetermined time intervals. The blood was immediately diluted to 5-fold with a 0.5 mg/kg low-molecular-weight heparin solution (DMSO:DIW cosolvent). Then, after transferring to a 96-well plate, the fluorescence intensity of the drug in the blood was measured by near-infrared (NIR) fluorescence quantification using a real-time optical imaging system equipped with a 660 nm excitation filter and a 710 nm emission filter. A calibration curve was constructed to analyze the concentration of the drug from the detected fluorescence intensity. The calibration curve was constructed by taking blood from an untreated tumor animal model and adjusting the concentration of the drug in the blood to 10^−8-10^−4.

Compound: C=Cc1c(C)c2cc3nc(c(CC(=O)O)c4nc(cc5[nH]c(cc1[nH]2)c(C)c5CC)C(C)=C4C(=O)O)C(CCC(=O)NCCCC[C@H](NC(C)=O)C(=O)NCC(=O)N[C@@H](CC(=O)O)C(=O)N[C@@H](CCC(=O)O)C(=O)N[C@H](C(=O)N[C@@H](CC(=O)O)C(=O)Nc1ccc(COC(=O)N(C)[C@H](C(=O)N[C@H](C(=O)N(C)C([C@@H](C)CC)[C@@H](CC(=O)N2CCC[C@H]2[C@H](OC)[C@@H](C)C(=O)N[C@H](C)[C@@H](O)c2ccccc2)OC)C(C)C)C(C)C)cc1)C(C)C)C3C (stereo partly shown) [CDM, Ce6-(Ac)KGDEVD-PABC-MMAE] (Ac-K(X1)GDEVD[PABC][NMeV]V[ξDil][Dolaproine]-X2)
- time to accumulation in the cells in an enough amount (SCC7 cells [1]): ≤ 3 h
- cell viability (SCC7 cells [2]; 500 nM, light irradiated from outside (laser (+))): 12.8±9.2%
- cytotoxic effect compared to when the drugs are used alone (SCC7 cells [2]; after external stimulation (light irradiation or caspase-3)): ≥ 2 time
- fluorescence intensity in organs and tumor 24 hours after injection (SCC7 tumor [3]; liver, lung, spleen, kidney, heart and tumor tissues): high
- fluorescence intensity in the tumor tissue relative to Ce6-injected model (SCC7 tumor [3]; mouse, in vivo): 12.8-4.2
- time of highest fluorescence intensity in the tumor (SCC7 tumor [3]; tail vein injection): 6 to 12 h
- growth of left-side vs right-side (laser) tumor (SCC7 tumor [4]; 0.5 mg/kg, 15 days): distinct difference in the growth of the left-side and right-side tumors
- caspase-3 probe (Cy5-GDEVD-BHQ3) fluorescence in tumors (SCC7 tumor [4]; CDM i.v., laser on right-side tumor only): observed only in the right-side tumor
- average diameter (SEM) [5]: 50-200 nm
- time to effective activation by caspase-3 (caspase-3 [6]; 10 μM CDM, 500 ng/mL caspase-3, 37° C.): ≤ 2 h
- activation by caspase-3 in presence of caspase-3 inhibitor (Z-DEVD-FMK) (caspase-3 [6]; incubation for 2 hours): not completely activated
- change in number of total white blood cells (WBCs) [7]: no change
- number of neutrophils ([7]; 0.5 mg/kg based on MMAE concentration): 1.6±1.0000
- change in body weight [7]: 4.8±0.2%
- survival rate [7]: 100%
- intracellular caspase-3 level (western blot) (caspase-3 [8]): increased the intracellular concentration of caspase-3
- cells killed after laser irradiation of a marked area (SCC7 cells [9]): nearby cells were also killed effectively
- solubility ([10]; water, PBS and physiological saline): dissolves well in all of water, PBS and physiological saline
- critical micelle concentration (CMC) [11]: about 1.382 μM
- tumor cell growth (cell viability, CCK) (SCC7 cells [12]; 10 nM in combination with caspase-3): 50.1%
- effect on tumor cells at 10 nM without caspase-3 (SCC7 cells [12]): little effect
- cell survival rate (SCC7 cells [12]; 50 nM in the presence of caspase-3): 42.5%
- cell survival rate (SCC7 cells [12]; 200 nM in the presence of caspase-3): 32.5%
- cell survival rate (SCC7 cells [12]; 600 nM in the presence of caspase-3): 25.5%
- apoptosis induction on light irradiation (SCC7 cells [13]): can induce apoptosis even with a small quantity of light
- average diameter (hydrodynamic, DLS) [14]: 90.8±18.9 nm
- average diameter (TEM images) [15]: about 52.6±20.0 nm
- tumor size with time, no laser (SCC7 tumor [16]; CDM group, laser not irradiated): no change in tumor size
- tumor weight decrease compared to the CDM group and the laser group (SCC7 tumor [16]; CDM+laser group): 99.6%
- tumor growth with laser (SCC7 tumor [16]): no tumor growth
- damage to other organs (biopsy) (SCC7 tumor [16]): no damage to other organs
- tumor cell killing in H&E biopsy (SCC7 tumor [16]): killed extensively
- blood level at first [17]: higher than that of Ce6

Compound: CC[C@H](C)[C@@H]([C@@H](CC(=O)N1CCC[C@H]1[C@H](OC)[C@@H](C)C(=O)N[C@H](C)[C@@H](O)c1ccccc1)OC)N(C)C(=O)[C@@H](NC(=O)[C@@H](NC)C(C)C)C(C)C [MMAE, monomethyl auristatin E] (H-[NMeV]V[Dil][Dolaproine]-X2)
- cell viability (SCC7 cells [2]; treated with MMAE only): 25.8±10.1%
- increase in plasma ALT ([7]; 0.5 mg/kg): 1.5 times
- increase in plasma AST ([7]; 0.5 mg/kg): 2.7 times
- neutrophils, times less as compared to the saline group ([7]; 0.5 mg/kg): 4.9 times
- percentage of the neutrophils to the total white blood cells ([7]; 0.5 mg/kg): 2.5±1.4%
- change in number of total white blood cells (WBCs) [7]: 35.7±13.8%
- change in body weight [7]: 31.6±2.2%
- day on which all were killed ([7]; MMAE 0.25 mg/kg): 4 days
- day on which group began to die ([7]; MMAE 0.25 mg/kg): 3 days
- size of lymphocytes (lymphoid tissue; white pulp) in spleen ([7]; MMAE group): significantly decreased
- spleen weight decrease ([7]; MMAE group): 75±11.8%
- body weight decrease ([7]; MMAE group, 0.25 mg/kg): 31.9±1.6%
- solubility in water [10]: water insolubility
- outcome of group during the antitumor experiment (SCC7 tumor [16]; MMAE 0.25 mg/kg only): died during the experiment because of too strong toxicity

Compound: Chlorin e6 [Ce6, reference compound]
- fluorescence in the tumor tissue (SCC7 tumor [3]; tail vein injection): hardly detected
- survival rate [7]: 100%
- cells killed after laser irradiation of a marked area (SCC7 cells [9]): only the cells treated with a laser were killed
- solubility in water [10]: water insolubility
- effect on tumor cells at 10 nM without caspase-3 (SCC7 cells [12]): no effect
- tumor growth with laser (SCC7 tumor [16]): tumor growth-inhibiting effect
- damage to other organs (biopsy) (SCC7 tumor [16]): no damage to other organs
- tumor cell killing in H&E biopsy (SCC7 tumor [16]): very insignificant
